The values that follow come from patent US20050281879A1, “Excipients in drug delivery vehicles” (priority 2003, published 2005).

The conditions of series [1]: cited from earlier work.
The nature of series [2]: Saturation concentration of bupivacaine hydrochloride in de-ionized water. Format: physicochemical. Particulars: DI water. How it is done:
Bupivacaine hydrochloride (Sigma-Aldrich Corporation, St. Louis, Mo.) was dissolved in de-ionized (DI) water at a concentration of 40 mg/ml (saturation). A calculated amount of sodium hydroxide (1 N solution) was added to the solution and the pH of the final mixtures was adjusted to 10 to precipitate the BP base. The precipitated product was filtered, and further washed with DI water for at least three times. The precipitated product was dried at approximately 40° C. in vacuum for 24 hours.

Molecules are shown by their SMILES. Counter-ions that a name gives are not always drawn.

With `CC(=O)OCC(COC(C)=O)OC(C)=O` [triacetin], the “reported solubility in water” value in series [1] was 7.17 grams in 100 ml of water.

With `CCCCN1CCCCC1C(=O)Nc1c(C)cccc1C` (centres unmarked) [Bupivacaine hydrochloride], the “concentration in de-ionized water (saturation)” value in series [2] came to 40000 µg/mL.
